# Test system: M2 macrophages differentiated from human monocyte-derived cells (THP-1)
# Experiment: IL-10 inducing ability in M2 macrophages (Human IL-10 ELISA of culture supernatant)
# Assay type: cell-based
# Conditions: Reference Example 1; 500 ng/ml FSL-1, 5000 nM WKYMVm at preparation, final 1/50; 24 hours; n=6
# Description: The anti-inflammatory cytokine IL-10 inducing ability in M2 macrophages differentiated from human monocyte-derived cells (THP-1, JCRB Cell Bank) was evaluated by the following procedure, which is a modification of the method described in the literature (BMC Cancer 15:577 (2015)). […]
# After the culture, the culture supernatant was collected, and the IL-10 concentration in the supernatant was calculated using Human IL-10 DuoSet ELISA (R&D Systems). […]
# Student's t-test was used for statistical processing. […] The results of IL-10 concentration are shown as the average of the values measured in six tests. […]
# The IL-10 inducing activity of the test samples was evaluated according to the procedure described in [Reference Example 1] above. […]
# The IL-10 induction rate was calculated according to the following formula. […]
substance,measurement,value
FSL-1,IL-10 Concentration (pg/mL) Average,180.8 pg/mL

# From US20250205164A1, “FPR2 AGONIST CONTAINING OUTER MEMBRANE VESICLES DERIVED FROM LACTIC ACID BACTERIUM” (ASAHI GROUP HOLDINGS, LTD., priority 2022, published 2025)
